Data set [1] is described as follows: Time dependent cleavage of DOTA-biotin conjugates in serum (% avidin binding). Format: in vitro ADME. The text has this: The difference in serum stability between DOTA-LC-biotin and DOTA-SC-biotin might be explained by the fact that the SC derivative contains an aromatic amide linkage in contrast to the aliphatic amide linkage of the LC derivative, with the aliphatic amide linkage being more readily recognized by enzymes as a substrate therefor. This argument cannot apply to biotinidase, however, because biotinidase very efficiently cleaves aromatic amides. In fact, it is recognized that the simplest and most commonly employed biotinidase activity measuring method uses N-(d-biotinyl)-4-aminobenzoate (BPABA) as a substrate, with the hydrolysis of BPABA resulting in the liberation of biotin and 4-aminobenzoate (PABA). See, for example, B. Wolf, et al., “Methods in Enzymology,” pp. 103-111, Academic Press Inc., 1990. Consequently, one would predict that DOTA-SC-biotin, like its LC counterpart, would be a biotinidase substrate. […] A series of DOTA-biotin conjugates was therefore synthesized by the present inventors to determine which structural features conferred serum stability to the conjugates.

Data set [2] has as its system LS-180 tumor xenografts. The data set is described as follows: Two-step pretargeting with NR-LU-10-avidin and 131I-PIP-biocytin. To be noted: 200 μg NR-LU-10-avidin at t=0, 42 μg 131I-PIP-biocytin at t=36 h. Format: in vivo, nude mice. As to the method:
^131I-PIP-biocytin was evaluated in a two-step pretargeting procedure in tumor-bearing mice. […] At t=0, the mice were injected with 200 μg of NR-LU-10-avidin conjugate labeled with ^125I using PIP-NHS (see Example IV.A.). At t=36 h, the mice received 42 μg of ^131I-PIP-biocytin. […] The described radiohalogenated biotin compounds are amenable to the same types of modifications described in Example VI above for ^186Re-chelate-biotin conjugates. In particular, the following PIP-polylysine-biotin molecule is made by trace labeling polylysine with ^125I-PIP, followed by extensive biotinylation of the polylysine. [drawing 47]

Data set [3] concerns LS-180 tumor xenografts. As to the kind of experiment: Tumor uptake of PIP-biocytin after NR-LU-10-streptavidin. It counts as in vivo, nude mice. As to the method: The following data are based on experimentation with tumored nude mice (100 mg LS-180 tumor xenografts implanted subcutaneously 7 days prior to study) that received, at time 0, 200 μg of I-125 labeled NR-LU-10-Streptavidin conjugate (950 pmol), as discussed in Example XI above. At 24 hours, the mice received an i.v. injection of PIP-I-131-biocytin (40 μCi) and an amount of cold carrier PIP-I-127 biocytin corresponding to doses of 42 μg (69,767 pmol), 21 μg (34,884 pmol), 5.7 μg (9468 pmol), 2.85 μg (4734 pmol) or 0.5 μg (830 pmol).

Data set [4] concerns LS-180 tumor. The data set is described as follows: Two-step pretargeting in LS-180 animal model.
Procedure: and perform biodistributions at 2, 6, 24, 72, 120 hours after injection of radiolabeled biotinyl molecule
For data set [5], the target named is T1, Streptavidin-agarose beads (Streptomyces avidinii, UniProt P22629).
T1 construct: purchased Sigma S-1638
T1 sequence (P22629 25-183): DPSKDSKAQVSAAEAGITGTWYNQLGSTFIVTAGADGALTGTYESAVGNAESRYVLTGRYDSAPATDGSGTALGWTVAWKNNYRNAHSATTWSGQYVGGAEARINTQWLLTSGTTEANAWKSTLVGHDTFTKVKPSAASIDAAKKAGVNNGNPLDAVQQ
As to the kind of experiment: Streptavidin-agarose bead binding. To be noted: for Pellet: radioactivity bound to streptavidin-agarose beads; for Supernatant: radioactivity not bound to streptavidin-agarose beads. As to the method:
100 μl of 0.2 M sodium carbonate buffer, pH 9.2, was added to 2 mg (in 1.00 ml PBS) of PIP-125-labeled orosomucoid and to 2 mg PIP-125-labeled asialoorosomucoid. 60 μl of a 1.85 mg/ml solution of NHS-amino caproate biotin in DMSO was then added to each compound. The reaction mixtures were vortexed and allowed to sit at room temperature for 45 minutes. The material was purified by size exclusion column chromatography (PD-10, Pharmacia) and eluted with PBS. 1.2 ml fractions were taken, with fractions 4 and 5 containing the majority of the applied radioactivity (>95%). Streptavidin-agarose beads (Sigma S-1638) or -pellets were washed with PBS, and 20 μg of each biotinylated, radiolabeled protein was added to 400 μl of beads and 400 μl of PBS, vortexed for 20 seconds and centrifuged at 14,000 rpm for 5 minutes. The supernatant was removed and the pellets were washed with 400 μl PBS. This wash procedure was repeated twice more, and the combined supernatants were assayed by placing them in a dosimeter versus their respective pellets.

A short description of data set [6]: Blood clearance and limited biodistribution of orosomucoid and asialoorosomucoid. To be noted: for blood level: I-125-labeled protein i.v.
Procedure: The asialoorosomucoid and orosomucoid starting material were radiolabeled with I-125 using PIP technology, as described in Example IV above.
In addition, two animals receiving each compound were sacrificed at 5 minutes post-administration and limited biodistributions were performed.
Data set [7] has as its system LS-180 human colon tumor xenografts. As to the kind of experiment: Three-step pretargeting in LS-180 xenograft model. To be noted: for tumor uptake: antibody at time 0, avidin at 24 h. The text has this:
The experimental protocol was as follows:
The three radiolabels employed in this protocol are capable of detection in the presence of each other. It is also noteworthy that the sizes of the three elements involved are logarithmically different—antibody≅150,000; avidin≅66,000; and biotin≅1,000.

The subject of data set [8] is HA peptide. Conditions: physiological conditions, concentrations as low as 10^−13 M; cited from earlier work.
The nature of data set [9]: Excretion of neutral MAMA chelate-biotin conjugate. Conditions: in vivo. The source says: Although the net overall charge of the conjugate is neutral, the polycarboxylate nature of the molecule generates regions of hydrophilicity and hydrophobicity. By altering the number and nature of the carboxylate groups within the conjugate, excretion may be shifted from kidney to gastrointestinal routes. For instance, neutral compounds are generally cleared by the kidneys; anionic compounds are generally cleared through the GI system.

Ends that are not written are not given here.

With `O=C(CCCCC1SCC2NC(=O)NC21)NCCCC[C@H](NC(=O)c1ccc([125I])cc1)C(=O)O` (some centres unmarked) [PIP-Biocytin, p-[I-125]iodobenzoylbiocytin], the “% Avidin Binding” value in [1] (5 Minutes at 37° C.) was 75%; in [1] (15 Minutes at 37° C.), 57%; in data set [1] (30 Minutes at 37° C.), 31%. Further, in data set [2], the “131I-PIP-biocytin molecules per avidin molecule at tumor” value is “≈ 1.5”. For the same compound, the peak tumor uptake is listed as 85.0 % ID/G in data set [3] (0.5 μg dose, 120 hour time point (96 hours after PIP-biocytin)) and “about 700 pMOL/G” in data set [4] (45 hours post-LU-10-StrAv administration). Further, the tumor localization result in [3] (three highest doses (42, 21, 5.7 μg), 4 hours after PIP-biocytin injection) is recorded as “about 600 pmol/g”. Further, the tumor uptake entry in [4] (40 hour time point, PIP-BT at 37 hours following LU-10-StrAv) is “above 500 pMOL/G”.

Regarding “orosomucoid: human alpha-1 acid glycoprotein [reference compound]”, in [5], the Pellet was determined as 10% and the Supernatant worked out at 90%. Moreover, the blood level in data set [6] (5 minutes post-administration) is reported as 78%.

`O=C(O)CN1CCN(CCOO)CCN(CCOO)CCN(CC(=O)O)C(Cc2ccc(NC(=O)CCCCC3SCC4NC(=O)NC43)cc2)C1` (centres unmarked) [Y-90-SC DOTA-Biotin, metal not drawn]: the results for the “% Avidin Binding” value in data set [1] (20 Hours at 37° C.) and in data set [1] (60 Minutes at 37° C.) were 60% and 98%, respectively. Further, the serum stability result in data set [1] (in comparison to DOTA-LC-biotin) is given as “significantly improved serum stability”.

“Avidin: avidin (MW≈66 kD), radiolabeled with 131I/PIP-NHS”: the tumor uptake result in data set [7] (at 25 h) is on record as “about 250 pmol/g”; in data set [7] (at 32 h), around 150 pmol/g; in [7] (at 48 h) it was around 50 pmol/g; in data set [7] (at 120 h), around 0 pmol/g. For the same compound, the “injected dose cleared from the blood” value in data set [7] (mouse, in vivo) was “greater than 90%”.

“pGlu-Pto-Pro-Gly-Gly-Ser-Lys-Val-Ile-Leu-Phe (PGGSKVILF; not fully specified (N-terminus); printed as pGlu-Pto-Pro-Gly-Gly-Ser-Lys-Val-Ile-Leu-Phe) [HA peptide]”: the “dissociation of HA dimer into monomers” value in data set [8] is “does not dissociate into monomers”.

“asialoorosomucoid: orosomucoid treated with neuraminidase”: in [5], the Pellet came to 8.0% and the Supernatant turned out to be 92%. Besides, in [6] (5 minutes post-administration), the “uptake in the liver” value amounted to 86% and the blood level is listed as 0.4%. Also, the blood clearance result in data set [6] (5 minutes to 4 hours post-administration) is “clearing more rapidly than its orosomucoid counterpart”.

On to `CN(CCSCc1ccccc1)CC(CCC(=O)NCCNC(=O)CC1SCC2NC(=O)NC21)NC(=O)CS` (centres unmarked) [neutral MAMA chelate-biotin conjugate], for which the kidney excretion result in [9] is given as “superior kidney excretion”.

The record behind these values is patent US6416738B1, “Pretargeting methods and compounds” (NeoRx Corporation, priority 1973, dated 2002).
